We go through seven molecules from US6060472A, “Thiadiazole compounds useful as inhibitors of H^+ /K^+ atpase” (Apotex Inc., priority 1998, dated 2000).

Usually IC50 stands for the midpoint of a concentration-inhibition curve. The low end stands for inhibition by little substance, the high end for a need for much substance.

Test [1] deals with isolated murine gastric glands of mouse (acid secretion). The test can be described thus: In vitro inhibition of gastric acid secretion (14C-aminopyrine accumulation in isolated mouse gastric glands). The note with it: 1 h, 60 min at 37 °C, secretagogue stimulated. The format is cell-based. The procedure: In Vitro Inhibition of Gastric Acid Secretion by Compounds of Formula I
Acid secretion is measured indirectly by the accumulation of the weak base ^14 C-aminopyrine in the isolated murine gastric glands of mouse. The assay is performed in polypropylene eppendorf tubes containing 0.5 mL of resuspended mouse gastric glands. In addition, tubes contain the tested drug, acid secretagogues (e.g. histamine, di-butyryl cyclic AMP (cAMP), carbachol) and ^14 C-aminopyrine. Tubes are incubated for 60 min. at 37 ° C. and continuously rotated. The reaction is stopped by centrifugation of the gland suspension for five min. at 1500 g. Supernatant is aspirated leaving the pellet containing intact gastric glands. The pellet is washed extensively and digested overnight in 1 mL of Protosol (Amersham). After neutralisation with acetic acid and addition of scintillation fluid, the radioactivity is counted in a beta-counter (Beckman). The amount of radioactivity trapped in the pellet corresponds directly with the amount of acid being secreted. Each experimental point is done in triplicate. In each experiment, energy independent consumption was estimated with 0.1 mM of dinitrophenol and basal acid secretion in the absence of acid stimulants. These values were then subtracted from corresponding results in order to calculate basal or secretagogue stimulated acid secretion.
Mouse glands respond to a variety of conventional secretagogues and post-receptor mediators but not to gastrin. The maximum stimulation of acid secretion is achieved with 1 mM cAMP, 0.1 mM histamine, 0.1 mM IBMX, 10 μM carbachol, 10 μM forskolin, 10 μM calcium ionophore A23187, 1 μM thapsigarin. Each experiment is repeated a number of times and all results are expressed as a % of the maximum stimulation. For the purpose of comparing the relative potency of the compounds, each experiment contains positive controls using omeprazole for post-receptor/cAMP mediated responses and ranitidine which inhibits histamine mediated acid secretion.
Using the above procedure, the IC50 value for these compounds were as follows: […]

The subject of test [2] is gastric acid secretion. The test can be described thus: Gastric secretion study in rat (pylorus ligation). The class given is in vivo, Male Sprague-Dawley rats. The settings on record: oral gavage, pylorus-ligated rat, 2 hours post ligation; for Average total gastric contents: Control 2.5; for Average total acid output: Control 298. The method, then: Gastric Secretion Study in Rat The objective of the study was to establish the antisecretory effects of two experimental compounds compared to Omeprazole. Male Sprague-Dawley rats (110 to 140 g in weight) were ordered from Ace Animals, Inc., Boyertown Pa. and were randomized into […] groups. The Control animals were administered carboxymethylcellulose (CMC) as the treated groups were administered the test materials in a suspension of CMC. Two groups were allotted to a reference standard of Omeprazole and were administered doses of 2 and 8 mg/kg. The other 4 dose groups were allotted to the 2 experimental compounds at doses of 8 and 32 mg/kg. All test materials were administered by oral gavage as this is the intended route in humans. Each animal was dosed using a stainless steel ball-tipped gavage needle attached to an appropriate size syringe. All doses administered were based on fasted body weights taken prior to the dosing. Two hours post drug administration, the animals were anesthetized using a short acting general anesthetic (Methoxital Sodium). The midline incision was made and the gastric duodenal area exposed. A ligature of thread was placed around the pylorus and tied tightly. This ligature around the pylorus stimulates the production of gastric acid. The incision was closed post ligation and the animal was replaced in its cage without access of food or water. All rats were euthanized 2 hours post pylorus ligation using an overdose of sodium pentobarbital. The esophagus was ligated and the intact stomach was removed and opened along the great curvature. Gastric contents were collected in a plastic cup and transferred to a 15 ml conical tube. The contents were centrifuged for approximately 10 minutes. The supernatant was decanted and the volume was measured to the nearest tenth of a milliliter. 1 ml of the gastric contents were pipetted into 4 ml of distilled water and titrated with 0.01 N sodium hydroxide to a pH of 7.0. The acidity was measured by titration and the total acid output calculated.

Take `O=C(c1ccccc1)c1nsc(N2CCN(c3ccccn3)CC2)n1` [3-benzoyl-5-{4-[pyridin-2-yl]-piperazin-1-yl}-1,2,4-thiadiazole]: the IC50 in test [1] was determined as 6 µM.

As to `COc1ccc2[nH]c([S+]([O-])Cc3ncc(C)c(OC)c3C)nc2c1` (stereo not drawn) [Omeprazole, reference compound], the “Average total gastric contents” value in test [2] (2 mg/kg) turned out to be 2.2 mL; in test [2] (8 mg/kg) it was 1.9 mL. Besides, the Average total acid output amounted to 296 µEq in test [2] (2 mg/kg) and 164 µEq in test [2] (8 mg/kg).

In test [1], `COc1nsc(N2CCN(c3ccccn3)CC2)n1` [3-methoxy-5-{4-[pyridin-2-yl]-piperazin-1-yl}-1,2,4-thiadiazole] returned an IC50 of 100 µM.

Consider `c1ccc(-c2nsc(N3CCN(c4ccccn4)CC3)n2)cc1` [3-phenyl-5-{4-[pyridin-2-yl]-piperazin-1-yl}-1,2,4-thiadiazole], for which the IC50 in test [1] turned out to be 4 µM. For the same molecule, in test [2] (8 mg/kg), the “Average total gastric contents” value was 2.2 mL and the Average total acid output worked out at 223 µEq. Also, in test [2] (32 mg/kg), the “Average total gastric contents” value worked out at 1.2 mL and the Average total acid output was found to be 100 µEq.

In test [1], `O=C(c1cccc(Cl)c1)c1nsc(N2CCN(c3ccccn3)CC2)n1` [3-(3-chlorobenzoyl)-5-{4-[pyridin-2-yl]-piperazin-1-yl}-1,2,4-thiadiazole] displayed an IC50 of 25 µM. The “Average total gastric contents” value was found to be 1.9 mL in test [2] (8 mg/kg) and 2.9 mL in test [2] (32 mg/kg). The Average total acid output in test [2] (8 mg/kg) turned out to be 159 µEq; in test [2] (32 mg/kg) it was 271 µEq.

In turn, `O=C(c1ccccc1)c1nsc(N2CCN(C(c3ccccc3)c3ccc(Cl)cc3)CC2)n1` (stereo not drawn) [3-benzoyl-5-{4-[1-phenyl-1-(4-chlorophenyl)methyl]piperazin-1-yl}-1,2,4-thiadiazole] showed an IC50 in test [1] of 50 µM.

For `OC(c1ccccc1)c1nsc(N2CCN(c3ccccn3)CC2)n1` (stereo not drawn) [3-(1-hydroxy-1-phenylmethyl)-5-{4-[pyridin-2-yl]-piperazin-1-yl}-1,2,4-thiadiazole], in test [1], the half-inhibitory concentration (IC50) is 30 µM.
